Experimental data reported in US6572865B1, “Mycobacterium tuberculosis DNA sequences encoding immunostimulatory peptides and methods for using same” (priority 1995, dated 2003).
Like-named read-outs stand apart in the source and are kept apart here.

What was measured:
[1] = tested on: T-cells from tuberculin-positive people; type: cell-based, human
[2] = tested on: immune T-cells; type: cell-based, mice; details: Table 2; background subtracted; up to ten μg fusion peptide
[3] = 5×10^5 mononuclear cells, up to 1 μg/mL peptide or up to 50 ng/mL PhoA fusion protein
[4] = up to 1 μg/mL peptide or up to 50 ng/mL PhoA fusion protein, background 103.3

Molecule	Concentration of INF-γ [1, 3] [pg/mL]	Concentration of INF-γ minus background [1, 4] [pg/mL]	Concentration of INF-γ ([1]; control at 10 μg/mL) [pg/mL]	Concentration of INF-γ minus background ([1]; control at 10 μg/mL) [pg/mL]	INF: pg/mL of INF-γ produced using fusion to stimulate immune T-cells [2]
EYSRFVGDVFGAPLAME [CD-2/1/96/10, synthetic peptide from AciI#2-827]	134.0	30.7			
GKTYDAYFTDAGGITPG [HPI1-3/2, synthetic peptide from HinP#1-3]	136.3	23.0			
GRAELSSIVVLLTNNTA [CD-2/1/96/14, synthetic peptide from AciI#2-827]	310.2	206.9			
PhoA control: PhoA protein employed as a negative control [reference compound]			26.7	0	
SRFVGDVFGAPLAMESL [CD-2/1/96/11, synthetic peptide from AciI#2-827]	141.6	38.3			
VTDNPAWYRLTKFFGKL [CD-2/1/96/1, synthetic peptide from AciI#2-827]	256.6	153.3			
WSEYSRFVGDVFGAPLA [CD-2/1/96/9, synthetic peptide from AciI#2-827]	187.6	84.3			
YDAYFTDAGGITPGNSV [HPI1-3/3, synthetic peptide from HinP#1-3]	264.2	160.9			
AciI#2-874: AP-fusion clone; SEQ ID NO: 73; MTCY190.20 (protein, AP-fusion clone; MTCY190.20) VMPSSIGLVVGSMLWRQINRLFGVRGLCWAAHCSTPLCAAVHGGRVVWAVGSRLGVLHGVPAGYGGRSNGGRRIDIVDQRPRAR					2,171 pg/mL
AciI#3-243: AP-fusion clone; SEQ ID NO: 112; MTCY50.02 (protein, AP-fusion clone; MTCY50.02) AGGCGACGGTTGGCACCACCACGAGTGAGTCAGGCAGGAGCCCCGCCACGTTGCGGACGGCGCGAATCTTCGCCTGTGGCTCACCGACTTTCCGCCCAACTTCAACGATCTTGCACATGGACGGCAAGAACGCCGAGGTCGCG					2,857 pg/mL
